For one test, the target named is EGFR^L858R/T790M/C797S (Homo sapiens, UniProt P00533, C797S/L858R/T790M). The test can be described thus: EGFR inhibitory activity assay (TK-substrate-biotin/ATP, 665/615 ratio). The format is biochemical. The settings on record: kinase inhibition. As to the method:
EGFR Inhibitory Activity Assay
(1) A compound stock solution was prepared and diluted 3× to obtain a compound dilution; 10 nL of the compound dilution was transferred to a 384-well plate (784075, Greiner) by Echo 550;
(2) The plate was sealed, and centrifuged at 1,000 g for 1 min;
(4) 5 μl of the 2×EGFR protein working solution was added to the 384-well plate from step (2), centrifuged at 1,000 g for 30 s, and allowed to stand at room temperature (mixed thoroughly) for 10 min;
(6) 5 µL of the TK-substrate-biotin and ATP (the mixture prepared in step (5)) was added to the 384-well plate from step (4) to initiate the reaction;
(7) The mixture was centrifuged at 1,000 g for 30 s; the plate was sealed, and allowed to stand (and reacted) at room temperature for 40 min;
(8) 4×Sa-XL 665 and TK-antibody-Cryptate were prepared with detection buffer;
(9) 5 µL of the Sa-XL 665 and 5 µL of the TK-antibody-Cryptate were added successively to the 384-well plate from step (7);
(10) The mixture was centrifuged at 1,000 g for 30 s, and allowed to stand (reacted) at room temperature for 1 h;
(11) The fluorescence values were read at 615 nm and 665 nm by enzyme labeling instrument (PerkinElmer, 74785).
The ratio (665/615) of each well was calculated.
(§1) Formula of inhibition rate (%): […]
Ratiocmpd: Ratio (665/615) value of assay compound.
Ratiopositive: Average ratio (665/615) value of positive control.
Ratiovehicle: Average ratio (665/615) value of negative control.
(§2) The nonlinear regression curve (dose response-variable slope) between the value of inhibition rate (%) and the logarithm of compound concentration was fitted with graphpad prism 8.0, the effect dose curve of compound was drawn, and the IC50 value was calculated.

The target of test [1] is Ba/F3(EGFR^L858R/T790M/C797S) cells (Homo sapiens, UniProt P00533, T790M/C797S/L858R, cells depend on it). The test can be described thus: Assay of activity on Ba/F3 cells (CTG, 72 h). The format is cell-based. The note with it: read-out: IC50 (nM) Ba/F3 (EGFR^L858R/T790M/C797S). A digest of the protocol: (§3)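 Ba/F3 cells dependent on each EGFR triple mutant were exposed to 3-fold compound dilutions for 72 h at 37° C, 5% CO2, with CellTiter-Glo luminescence as the read-out.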

The next test deals with ALK (Homo sapiens, UniProt Q9UM73). The test can be described thus: Assay of activity on ALK kinase. It counts as biochemical. The settings on record: kinase inhibition. The procedure:
(§4) Assay of activity on ALK kinase
(§5) (1) A compound stock solution was prepared;
(§6) (2) The compound stock solution was diluted 3× to obtain a compound dilution;
(§7) (5) 5 μl of the 2× kinase working solution was added to the reaction plate, centrifuged at 1,000 rpm for 1 min, and incubated at 25° C. for 15 min;
(§8) (7) 5 μl of the TK-substrate-biotin and ATP (the mixture prepared in step (6)) was added to initiate the reaction;
(§9) (8) The mixture was centrifuged at 1,000 g for 30 s; the plate was sealed, and incubated at 25° C. for 60 min;
(§10) (11) The mixture was centrifuged at 1,000 g for 1 min, and incubated at 25° C. for 60 min;
as §1, §2
(§11) Y=Bottom+(Top−Bottom)/(1+10^((LogIC50−X)*Hill Slope))
(§12) X-axis: logarithm of compound concentration; Y axis: inhibition rate ([…])

In a further test the target is T1, Ba/F3(EML4-ALK) cells (Homo sapiens, UniProt Q9UM73).
T1 construct: fused on or other part: Q9HC35 (Echinoderm microtubule-associated protein-like 4)
T1 sequence (Q9UM73 whole entry, change not shown, the tested form may be a part): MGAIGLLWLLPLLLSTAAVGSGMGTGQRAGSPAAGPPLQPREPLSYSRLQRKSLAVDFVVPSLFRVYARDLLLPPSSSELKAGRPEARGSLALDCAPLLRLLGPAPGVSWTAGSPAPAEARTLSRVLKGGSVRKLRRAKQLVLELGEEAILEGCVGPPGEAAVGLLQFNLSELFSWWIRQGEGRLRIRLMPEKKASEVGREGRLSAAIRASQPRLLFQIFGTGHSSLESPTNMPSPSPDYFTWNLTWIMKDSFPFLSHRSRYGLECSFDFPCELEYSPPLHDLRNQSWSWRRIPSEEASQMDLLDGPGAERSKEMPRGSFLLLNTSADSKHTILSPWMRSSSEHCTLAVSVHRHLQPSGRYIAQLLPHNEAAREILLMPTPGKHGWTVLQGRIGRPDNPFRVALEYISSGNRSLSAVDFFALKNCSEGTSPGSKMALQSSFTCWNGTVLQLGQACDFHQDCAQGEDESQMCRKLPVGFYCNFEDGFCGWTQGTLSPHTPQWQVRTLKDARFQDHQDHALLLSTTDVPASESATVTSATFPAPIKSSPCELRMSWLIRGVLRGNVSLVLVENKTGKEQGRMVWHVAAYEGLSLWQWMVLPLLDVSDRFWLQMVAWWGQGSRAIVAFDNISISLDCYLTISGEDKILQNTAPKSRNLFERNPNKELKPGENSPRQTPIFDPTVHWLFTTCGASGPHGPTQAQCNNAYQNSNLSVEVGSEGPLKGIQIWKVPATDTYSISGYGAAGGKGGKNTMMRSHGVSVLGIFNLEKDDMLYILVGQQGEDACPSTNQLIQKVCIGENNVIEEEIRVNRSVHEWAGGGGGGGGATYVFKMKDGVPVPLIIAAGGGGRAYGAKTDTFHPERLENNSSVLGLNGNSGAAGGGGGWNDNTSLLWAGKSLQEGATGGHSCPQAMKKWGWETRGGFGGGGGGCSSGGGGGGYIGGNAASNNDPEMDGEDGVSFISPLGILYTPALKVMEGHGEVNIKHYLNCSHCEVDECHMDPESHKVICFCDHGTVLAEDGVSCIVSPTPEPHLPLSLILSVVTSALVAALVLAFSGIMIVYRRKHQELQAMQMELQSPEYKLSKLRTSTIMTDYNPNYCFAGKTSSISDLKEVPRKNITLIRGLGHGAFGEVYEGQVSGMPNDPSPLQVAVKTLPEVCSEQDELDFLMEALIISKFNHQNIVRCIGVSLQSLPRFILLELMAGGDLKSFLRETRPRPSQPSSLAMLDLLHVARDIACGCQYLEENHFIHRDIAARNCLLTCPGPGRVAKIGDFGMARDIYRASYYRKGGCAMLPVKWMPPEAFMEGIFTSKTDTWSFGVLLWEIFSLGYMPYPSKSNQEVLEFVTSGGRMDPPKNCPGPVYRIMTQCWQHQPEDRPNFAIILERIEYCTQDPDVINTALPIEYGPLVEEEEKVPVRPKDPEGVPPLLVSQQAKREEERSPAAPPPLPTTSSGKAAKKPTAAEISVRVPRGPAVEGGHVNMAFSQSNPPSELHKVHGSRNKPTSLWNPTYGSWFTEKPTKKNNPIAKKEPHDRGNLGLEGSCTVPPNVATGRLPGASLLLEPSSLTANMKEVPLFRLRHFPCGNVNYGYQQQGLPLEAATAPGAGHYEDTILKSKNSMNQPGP
The test can be described thus: Assay of activity on Ba/F3(EML4-ALK) cells (CTG, 72 h). The format is cell-based. The note with it: read-out: IC50 (nM) Ba/F3(EML4-ALK). As to the method:
Assay of activity on Ba/F3(EML4-ALK) cells
(1) Ba/F3(EML4-ALK) cells were cultured according to the requirements of ATCC, incubated in an incubator at 37° C. and 5% CO2, and analyzed by index; cells with viability of >90% can be used in the assay, and cells were seeded in a 384-well plate (PerkinElmer, 6007680) with 700 cells/well, 30 μl/well.
(2) A compound stock solution was prepared, and diluted 3× to obtain a compound dilution; 30 nL of the serial dilution was added to a 384-well plate (784075, Greiner) by Echo 550, and cells were incubated in an incubator at 37° C. and 5% CO2 for 72 h.
(3) 30 μL of CTG was added to each well, and the 384-well plate was shaken on a Plate shaker (QILINBEIER, QB-9002); the 384-well plate was incubated in the dark at 37° C. and 5% CO2 for 30 min, and the chemiluminescence value was read by Envision (PerkinElmer, EnVision 2104).
The percent inhibition rate (% inhibition) was calculated by the formula below
LUMcmpd: Luminescence value of assay compound.
LUMpositive: Average LUM value of positive drug at a concentration of 10 μM.
LUM^vehicle: Average LUM value of negative control group without drug treatment.
as §2
Y=Bottom+(Top−Bottom)/(1+10^((LogIC50−X)*HillSlope))
X-axis: logarithm of compound concentration; Y axis: inhibition rate (% inhibition).

A further test addresses ALK^G1202R (Homo sapiens, UniProt Q9UM73, G1202R). Description: Assay of activity on ALK kinase. It counts as biochemical. The note with it: kinase inhibition. As to the method: as §4, §5, §6, §7, §8, §9, §10, §1, §2, §11, §12
The target of test [2] is Ba/F3(EGFR^Del19/T790M/C797S) cells (Homo sapiens, UniProt P00533, DEL746-750/T790M/C797S, cells depend on it). Description: Assay of activity on Ba/F3 cells (CTG, 72 h). It counts as cell-based. The note with it: read-out: IC50 (nM) Ba/F3 (EGFR^Del19/T790M/C797S). In a few lines:
as §3

ALK^G1202R, sequence (Q9UM73 19-1620 G1202R): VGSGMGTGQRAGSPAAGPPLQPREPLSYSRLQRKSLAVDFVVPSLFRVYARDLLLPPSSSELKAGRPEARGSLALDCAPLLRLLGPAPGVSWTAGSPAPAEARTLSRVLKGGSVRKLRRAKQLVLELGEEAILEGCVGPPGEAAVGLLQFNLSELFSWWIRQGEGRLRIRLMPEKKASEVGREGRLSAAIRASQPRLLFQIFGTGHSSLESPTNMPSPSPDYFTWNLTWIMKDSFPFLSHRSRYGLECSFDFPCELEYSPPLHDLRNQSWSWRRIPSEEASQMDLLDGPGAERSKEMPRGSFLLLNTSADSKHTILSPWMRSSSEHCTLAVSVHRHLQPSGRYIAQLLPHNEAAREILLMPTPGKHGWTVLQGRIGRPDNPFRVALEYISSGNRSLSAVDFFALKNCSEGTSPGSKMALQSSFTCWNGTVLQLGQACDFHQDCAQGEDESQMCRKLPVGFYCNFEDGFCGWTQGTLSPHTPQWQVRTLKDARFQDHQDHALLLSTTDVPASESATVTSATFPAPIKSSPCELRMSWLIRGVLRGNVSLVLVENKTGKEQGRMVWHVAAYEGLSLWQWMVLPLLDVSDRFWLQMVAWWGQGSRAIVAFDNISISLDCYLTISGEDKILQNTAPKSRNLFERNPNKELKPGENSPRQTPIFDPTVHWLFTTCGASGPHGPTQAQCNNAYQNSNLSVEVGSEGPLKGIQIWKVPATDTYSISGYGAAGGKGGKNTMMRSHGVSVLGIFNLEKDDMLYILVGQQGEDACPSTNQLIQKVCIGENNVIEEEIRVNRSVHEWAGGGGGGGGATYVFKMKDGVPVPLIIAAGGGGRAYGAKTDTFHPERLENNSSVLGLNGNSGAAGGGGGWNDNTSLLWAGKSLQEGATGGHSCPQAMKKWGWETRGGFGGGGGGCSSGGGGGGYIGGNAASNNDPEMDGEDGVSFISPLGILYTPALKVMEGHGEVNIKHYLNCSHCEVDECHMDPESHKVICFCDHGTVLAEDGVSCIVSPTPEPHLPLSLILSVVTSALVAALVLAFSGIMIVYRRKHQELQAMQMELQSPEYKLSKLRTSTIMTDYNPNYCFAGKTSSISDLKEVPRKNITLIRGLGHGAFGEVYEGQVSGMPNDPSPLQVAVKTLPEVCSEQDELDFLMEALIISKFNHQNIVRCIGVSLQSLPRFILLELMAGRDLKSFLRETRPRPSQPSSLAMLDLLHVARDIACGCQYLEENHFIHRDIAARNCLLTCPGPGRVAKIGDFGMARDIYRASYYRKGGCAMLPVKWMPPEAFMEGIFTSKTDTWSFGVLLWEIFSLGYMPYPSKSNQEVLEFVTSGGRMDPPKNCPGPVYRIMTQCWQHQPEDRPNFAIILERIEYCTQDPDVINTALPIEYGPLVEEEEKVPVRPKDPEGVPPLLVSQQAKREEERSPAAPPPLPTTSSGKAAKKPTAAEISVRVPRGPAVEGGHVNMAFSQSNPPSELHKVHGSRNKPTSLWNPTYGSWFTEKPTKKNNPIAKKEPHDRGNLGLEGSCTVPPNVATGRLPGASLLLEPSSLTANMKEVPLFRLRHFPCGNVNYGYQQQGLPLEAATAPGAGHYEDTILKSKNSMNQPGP
EGFR^L858R/T790M/C797S, sequence (P00533 25-1210 T790M/C797S/L858R): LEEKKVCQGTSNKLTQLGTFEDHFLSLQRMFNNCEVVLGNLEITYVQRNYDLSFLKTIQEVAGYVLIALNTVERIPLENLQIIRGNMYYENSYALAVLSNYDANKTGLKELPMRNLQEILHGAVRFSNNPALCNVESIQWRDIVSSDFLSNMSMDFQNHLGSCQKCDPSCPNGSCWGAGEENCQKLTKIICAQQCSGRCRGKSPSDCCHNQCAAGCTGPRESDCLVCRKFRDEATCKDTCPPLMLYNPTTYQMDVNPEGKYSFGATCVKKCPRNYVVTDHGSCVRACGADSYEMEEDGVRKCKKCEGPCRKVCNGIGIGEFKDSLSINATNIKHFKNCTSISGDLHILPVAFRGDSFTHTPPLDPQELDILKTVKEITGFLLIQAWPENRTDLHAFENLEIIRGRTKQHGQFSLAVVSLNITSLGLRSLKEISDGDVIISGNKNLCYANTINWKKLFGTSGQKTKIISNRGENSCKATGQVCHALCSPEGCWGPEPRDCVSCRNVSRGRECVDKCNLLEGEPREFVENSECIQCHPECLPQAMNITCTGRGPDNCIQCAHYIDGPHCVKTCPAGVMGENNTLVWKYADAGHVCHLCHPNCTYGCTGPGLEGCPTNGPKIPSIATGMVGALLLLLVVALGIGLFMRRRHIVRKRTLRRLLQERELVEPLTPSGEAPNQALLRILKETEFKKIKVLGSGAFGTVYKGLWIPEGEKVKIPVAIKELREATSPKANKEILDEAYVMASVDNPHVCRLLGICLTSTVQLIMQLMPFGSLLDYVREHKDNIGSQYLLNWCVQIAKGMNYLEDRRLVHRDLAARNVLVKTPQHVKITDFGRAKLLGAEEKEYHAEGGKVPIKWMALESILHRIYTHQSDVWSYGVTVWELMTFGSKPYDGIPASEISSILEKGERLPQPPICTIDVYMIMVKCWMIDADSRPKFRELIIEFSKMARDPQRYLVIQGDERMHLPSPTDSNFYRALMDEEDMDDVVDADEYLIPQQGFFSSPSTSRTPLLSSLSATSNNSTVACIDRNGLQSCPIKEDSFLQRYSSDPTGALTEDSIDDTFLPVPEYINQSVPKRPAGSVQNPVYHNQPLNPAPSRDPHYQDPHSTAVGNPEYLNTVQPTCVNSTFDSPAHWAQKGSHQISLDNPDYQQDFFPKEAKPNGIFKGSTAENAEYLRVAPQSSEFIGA
ALK, sequence (Q9UM73 19-1620): as the sequence (Q9UM73 19-1620 G1202R) above, with R1184G counted along it

For the molecule `COc1cc(N2CCC(N3CCN(CCCCCC#Cc4cccc5c4CN(C4CCC(=O)NC4=O)C5=O)CC3)CC2)ccc1Nc1ncc(Cl)c(Nc2ccccc2P(C)(C)=O)n1` (stereo not shown) [Compound C1, 3-(4-(7-(4-(1-(4-((5-chloro-4-((2-(dimethylphosphoryl)phenyl)amino)pyrimidin-2-yl)amino)-3-methoxyphenyl)piperidin-4-yl)piperazin-1-yl)hept-1-yn-1-yl)-1-oxoisoindolin-2-yl)piperidine-2,6-dione], the IC50 at EGFR^L858R/T790M/C797S and at ALK was 1 to 100 nM each time. Further, the GI50 (in test [1]; at Ba/F3(EML4-ALK) cells) was 1 to 100 nM throughout.

Consider `COc1cc(N2CCC(N3CCN(CC(=O)N4CCC(CCOc5cccc6c5C(=O)N(C5CCC(=O)NC5=O)C6=O)CC4)CC3)CC2)ccc1Nc1ncc(Cl)c(Nc2ccccc2P(C)(C)=O)n1` (stereo not shown) [Compound C4, 4-(2-(1-(2-(4-(1-(4-((5-chloro-4-((2-(dimethylphosphoryl)phenyl)amino)pyrimidin-2-yl)amino)-3-methoxyphenyl)piperidin-4-yl)piperazin-1-yl)acetyl)piperidin-4-yl)ethoxy)-2-(2,6-dioxopiperidin-3-yl)isoindoline-1,3-dione], for which the IC50 on EGFR^L858R/T790M/C797S lay within 101 to 200 nM; on ALK it was 1 to 100 nM; on ALK^G1202R it was 101 to 200 nM. Further, in test [1], the GI50 fell in the range of 101 to 200 nM.

As to `COc1cc(N2CCC(N3CCN(C(=O)C(C)(C)COC(=O)COc4cccc5c4C(=O)N(C4CCC(=O)NC4=O)C5=O)CC3)CC2)ccc1Nc1ncc(Cl)c(Nc2ccccc2P(C)(C)=O)n1` (stereo not shown) [Compound C6, 2-((2-(2,6-dioxopiperidin-3-yl)-1,3-dioxoisoindolin-4-yl)oxy)acetic acid 3-(4-(1-(4-((5-Chloro-4-((2-(dimethylphosphoryl)phenyl)amino)pyrimidin-2-yl)amino)-3-methoxyphenyl)piperidin-4-yl)piperazin-1-yl)-2,2-dimethyl-3-oxopropyl ester], the IC50 at EGFR^L858R/T790M/C797S lay in the range of 101 to 200 nM; on ALK, 1 to 100 nM; against ALK^G1202R, 1 to 100 nM. Further, the GI50 in test [1] lay within 201 to 300 nM.

For `COc1cc(N2CCC(N3CCN(CC(=O)N4CC(Oc5cccc6c5C(=O)N(C5CCC(=O)NC5=O)C6=O)C4)CC3)CC2)ccc1Nc1ncc(Cl)c(Nc2ccccc2P(C)(C)=O)n1` (stereo not shown) [Compound C93, 4-((1-(2-(4-(1-(4-((5-chloro-4-((2-(dimethylphosphoryl)phenyl)amino)pyrimidin-2-yl)amino)-3-methoxyphenyl)piperidin-4-yl)piperazin-1-yl)acetyl)azetidin-3-yl)oxy)-2-(2,6-dioxopiperidin-3-yl)isoindoline-1,3-dione], the half-inhibitory concentration (IC50) at EGFR^L858R/T790M/C797S, at ALK and at ALK^G1202R was 1 to 100 nM each time. Besides, the GI50 in test [1] is above 300 nM.

`COc1cc(N2CCC(N3CCN(C(=O)CC4(CSCC(=O)Nc5cccc6c5C(=O)N(C5CCC(=O)NC5=O)C6=O)CC4)CC3)CC2)ccc1Nc1ncc(Cl)c(Nc2ccccc2P(C)(C)=O)n1` (stereo not shown) [Compound C103, 2-(((1-(2-(4-(1-(4-((5-chloro-4-((2-(dimethylphosphoryl)phenyl)amino)pyrimidin-2-yl)amino)-3-methoxyphenyl)piperidin-4-yl)piperazin-1-yl)-2-oxoethyl)cyclopropyl)methyl)thio)—N-(2-(2,6-dioxopiperidin-3-yl)-1,3-dioxoisoindolin-4-yl)acetamide]: the IC50 on EGFR^L858R/T790M/C797S is 201 to 300 nM; at ALK, 1 to 100 nM; at ALK^G1202R, above 300 nM.

On to `COc1cc(N2CCC(N3CCN(CCCCCCCOc4cccc5c4C(=O)N(C4CCC(=O)NC4=O)C5=O)CC3)CC2)c(C)cc1Nc1ncc(Br)c(Nc2ccc3nccnc3c2P(C)(C)=O)n1` (stereo not shown) [Compound C158, 4-((7-(4-(1-(4-((5-bromo-4-((5-(dimethylphosphoryl)quinoxalin-6-yl)amino)pyrimidin-2-yl)amino)-5-methoxy-2-methylphenyl)piperidin-4-yl)piperazin-1-yl)heptyl)oxy)-2-(2,6-dioxopiperidin-3-yl)isoindoline-1,3-dione], for which the values for the GI50 (in test [2]; in test [1]; at Ba/F3(EML4-ALK) cells) were 1 to 100 nM, 101 to 200 nM and 201 to 300 nM, respectively.

With `[2H]C([2H])(CCCCCCOc1cccc2c1C(=O)N(C1CCC(=O)NC1=O)C2=O)N1CCN(C2CCN(c3ccc(Nc4ncc(Cl)c(Nc5ccccc5P(C)(C)=O)n4)c(OC)c3)CC2)CC1` (stereo not shown) [Compound C164, 4-((7-(4-(1-(4-((5-chloro-4-((2-(dimethylphosphoryl)phenyl)amino)pyrimidin-2-yl)amino)-3-methoxyphenyl)piperidin-4-yl)piperazin-1-yl)heptyl-7,7-dideuterium)oxy)-2-(2,6-dioxopiperidin-3-yl)isoindoline-1,3-dione], the IC50 at EGFR^L858R/T790M/C797S lay within 1 to 100 nM. The GI50 (in test [2]; on Ba/F3(EML4-ALK) cells) was 1 to 100 nM throughout.

As to `COc1cc(N2CCC(N3CCN(CCCCCCCC#Cc4cccc5c4CN(C4CCC(=O)NC4=O)C5=O)CC3)CC2)c(C)cc1Nc1ncc(Br)c(Nc2ccc3nccnc3c2P(C)(C)=O)n1` (stereo not shown) [Compound C183, 3-(4-(9-(4-(1-(4-((5-bromo-4-((5-(dimethylphosphoryl)quinoxalin-6-yl)amino)pyrimidin-2-yl)amino)-5-methoxy-2-methylphenyl)piperidin-4-yl)piperazin-1-yl)non-1-yn-1-yl)-1-oxoisoindolin-2-yl)piperidine-2,6-dione], the GI50 (in test [2]; in test [1]; at Ba/F3(EML4-ALK) cells) was 1 to 100 nM in each case.

For `COc1cc(N2CCC(N3CCN(CCCCCCCOc4cccc5c4CN(C4CCC(=O)NC4=O)C5=O)CC3)CC2)c(C)cc1Nc1ncc(Br)c(Nc2ccc3nccnc3c2P(C)(C)=O)n1` (stereo not shown) [Compound C214, 3-(4-((7-(4-(1-(4-((5-bromo-4-((5-(dimethylphosphoryl)quinoxalin-6-yl)amino)pyrimidin-2-yl)amino)-5-methoxy-2-methylphenyl)piperidin-4-yl)piperazin-1-yl)heptyl)oxy)-1-oxoisoindolin-2-yl)piperidine-2,6-dione], the GI50 (in test [2]; in test [1]; on Ba/F3(EML4-ALK) cells) was 1 to 100 nM in each case.

The term IC50 denotes the concentration needed to halve the response being measured.

Values taken from patent publication US20220306659A1, “COMPOUND INHIBITING AND INDUCING DEGRADATION OF EGFR AND ALK” (BEIJING TIDE PHARMACEUTICAL CO., LTD., priority 2019, published 2022).
